Patent US20110039879A1, “METHODS FOR INCREASING WHITE BLOOD CELLS” (FibroGen ,Inc., priority 2007, published 2011)

Experiments:
Format in all cases: in vivo, Swiss-Webster mice
[1] = system: neutrophils in bone marrow; assay: Neutrophils in bone marrow by FACS analysis; conditions: mice, oral gavage, tibia bone marrow 6 h after final dosing
Description: (§1) Six hours after the final dosing, 200 μl blood samples were collected for detection of hematopoietic progenitor cells (HPCs) and neutrophils by FACS analysis using methods previously described. (See, e.g., Wang et al. (1997) J Leukoc Biol 62 503-9 and Legasse et al. (1996) J Immunol Methods 197:139-50.) Briefly, leukocytes and progenitor cells were isolated from whole blood samples following erythrocyte depletion using red blood cell lysis buffer (eBioscience) according to the manufacturer's instructions. The remaining cells were incubated for one hour with monoclonal antibodies directed against mouse Sca-1 and mouse c-Kit (cell surface markers for HPCs, BD Pharmingen), or mouse Mac-1 and mouse Gr-1 (cell surface markers for murine neutrophils, BD Pharmingen). Following incubation with the monoclonal antibodies, the cells were washed three times with sort buffer (PBS, 1% fetal bovine serum) and resuspended in sort buffer containing 50 μg/ml of propidium iodide. Samples were then analyzed for the presence and quantitation of HPCs and neutrophils by flow cytometry (FACS Calibur, Becton Dickinson). The cytometer was set to acquire 10 000 events. Two or three blood samples obtained from each animal were analyzed and the average recorded. Hematopoietic progenitor cells were determined as double positive Sca-1+/c-Kit+ cells and neutrophils were determined as double positive Mac-1+/Gr-1+ cells.
(§2) To examine the effect of compounds and methods of the present invention on hematopoietic progenitor cell (HPC) and neutrophil levels in bone marrow, the following studies were performed. Male Swiss-Webster mice were administered various compounds of the present invention via oral gavage using a ball-tipped gavage needle. Animals treated by oral gavage received a 10 ml/kg volume of either 0.5% carboxymethyl cellulose (CMC) with 0.1% Polysorbate 80 (vehicle control) or various doses (10-100 mg/kg) of a compound of the present invention in 0.5% CMC with 0.1% Polysorbate 80. Animals were dosed once daily for 3 or 4 days. Six hours after the final dosing, bone marrow samples were taken from one tibia of each animal and suspended in buffer (PBS with 1% fetal bovine serum). Bone marrow suspensions were then filtered through nylon filters to remove stromal cells. Following filtration, the remaining cells were counted manually using a hemocytometer. Detection and quantitation of HPCs and neutrophils were performed by FACS analysis as described above in Example 1.

[2] = system: hematopoietic progenitor cells (HPCs) in bone marrow; assay: Hematopoietic progenitor cells in bone marrow by FACS analysis; conditions: mice, oral gavage, tibia bone marrow 6 h after final dosing
Description: as §1, §2

lymphocytes = assay: Lymphocytes by complete blood count, once daily dosing 3 or 4 days; conditions: mice, oral gavage, blood 6 h after final dosing, CBC
Description: (§3) To examine the effect of compounds and methods of the present invention on increasing white blood cells, the following studies were performed. In one series of experiments, male Swiss-Webster mice were administered various compounds of the present invention via oral gavage using a ball-tipped gavage needle. Animals treated by oral gavage received a 10 ml/kg volume of either 0.5% carboxymethyl cellulose (CMC) with 0.1% Polysorbate 80 (vehicle control) or various doses (10-100 mg/kg) of a compound of the present invention in 0.5% CMC with 0.1% Polysorbate 80. Animals were dosed once daily for 3 or 4 days. Six hours after the final dosing, 200 μl blood samples were collected and total white blood cell, neutrophil, and lymphocyte levels were measured by complete blood count (CBC) using a CellDyn cell analyzer (Abbott Laboratories).

neutrophils [3] = assay: Neutrophils (Mac-1+/Gr-1+) in blood by FACS analysis; conditions: mice, oral gavage, blood 6 h after final dosing
Description: (§4) To examine the effect of compounds and methods of the present invention on hematopoietic progenitor cell (HPC) and neutrophil levels, the following studies were performed. Male Swiss-Webster mice were administered various compounds of the present invention via oral gavage using a ball-tipped gavage needle. Animals treated by oral gavage received a 10 ml/kg volume of either 0.5% carboxymethyl cellulose (CMC) with 0.1% Polysorbate 80 (vehicle control) or various doses (10-100 mg/kg) of a compound of the present invention in 0.5% CMC with 0.1% Polysorbate 80. Animals were dosed once daily for 3 or 4 days.
as §1

neutrophils [4] = assay: Neutrophils by complete blood count, once daily dosing 3 or 4 days; conditions: mice, oral gavage, blood 6 h after final dosing, CBC
Description: as §3

[5] = system: hematopoietic progenitor cells (HPCs); assay: Hematopoietic progenitor cells (Sca-1+/c-Kit+) in blood by FACS analysis; conditions: mice, oral gavage, blood 6 h after final dosing
Description: as §4, §1

[6] = system: total white blood cell (WBC); assay: Total white blood cells by complete blood count, once daily dosing 3 or 4 days; conditions: mice, oral gavage, blood 6 h after final dosing
Description: as §3

[7] = 100 mg/kg once daily for 4 days

COc1ccc(Oc2ccc3c(O)c(C(=O)NCC(=O)O)ncc3c2)cc1 [Compound A, {[4-Hydroxy-7-(4-methoxy-phenoxy)-isoquinoline-3-carbonyl]-amino}-acetic acid]
Percent Bone Marrow Neutrophils ([1]; 60 mg/kg once daily for 3 days): 33.4 % gated cells | Percent Bone Marrow Neutrophils Fold Increase Over Control ([1]; 60 mg/kg once daily for 3 days): 1.1 fold | Percent Bone Marrow Neutrophils [1, 7]: 33.7 % gated cells | Percent Bone Marrow Neutrophils Fold Increase Over Control [1, 7]: 1.3 fold | Percent Bone Marrow HPCs ([2]; 60 mg/kg once daily for 3 days): 5.1 % gated cells | Percent Bone Marrow HPCs Fold Increase Over Control ([2]; 60 mg/kg once daily for 3 days): 1.3 fold | Percent Bone Marrow HPCs [2, 7]: 6.7 % gated cells | Percent Bone Marrow HPCs Fold Increase Over Control [2, 7]: 1.5 fold | Lymphocytes (lymphocytes; 60 mg/kg once daily for 3 days): 7.82 10^3 cells/μl | Lymphocytes % Increase Over Control (lymphocytes; 60 mg/kg once daily for 3 days): 14% | Lymphocytes (lymphocytes; [7]): 8.30 10^3 cells/μl | Lymphocytes % Increase Over Control (lymphocytes; [7]): 8% | Blood Neutrophils (neutrophils [3]; 60 mg/kg once daily for 3 days): 200 cells/μl | Blood Neutrophils Fold Increase Over Control (neutrophils [3]; 60 mg/kg once daily for 3 days): 2.0 fold | Percent Blood Neutrophils (neutrophils [3]; 60 mg/kg once daily for 3 days): 2.3 % gated cells | Percent Blood Neutrophils Fold Increase Over Control (neutrophils [3]; 60 mg/kg once daily for 3 days): 1.6 fold | Blood Neutrophils (neutrophils [3]; [7]): 1,083 cells/μl | Blood Neutrophils Fold Increase Over Control (neutrophils [3]; [7]): 6.1 fold | Percent Blood Neutrophils (neutrophils [3]; [7]): 11.3 % gated cells | Percent Blood Neutrophils Fold Increase Over Control (neutrophils [3]; [7]): 3.4 fold | Neutrophils (neutrophils [4]; 60 mg/kg once daily for 3 days): 0.78 10^3 cells/μl | Neutrophils % Increase Over Control (neutrophils [4]; 60 mg/kg once daily for 3 days): 18% | Neutrophils (neutrophils [4]; [7]): 1.22 10^3 cells/μl | Neutrophils % Increase Over Control (neutrophils [4]; [7]): 94% | Blood HPCs ([5]; 60 mg/kg once daily for 3 days): 76 cells/μl | Blood HPCs Fold Increase Over Control ([5]; 60 mg/kg once daily for 3 days): 1.7 fold | Percent Blood HPCs ([5]; 60 mg/kg once daily for 3 days): 0.9 % gated cells | Percent Blood HPCs Fold Increase Over Control ([5]; 60 mg/kg once daily for 3 days): 1.4 fold | Blood HPCs [5, 7]: 125 cells/μl | Blood HPCs Fold Increase Over Control [5, 7]: 7.4 fold | Percent Blood HPCs [5, 7]: 1.3 % gated cells | Percent Blood HPCs Fold Increase Over Control [5, 7]: 4.1 fold | Total WBC ([6]; 60 mg/kg once daily for 3 days): 8.66 10^3 cells/μl | Total WBC % Increase Over Control ([6]; 60 mg/kg once daily for 3 days): 12% | Total WBC [6, 7]: 9.62 10^3 cells/μl | Total WBC % Increase Over Control [6, 7]: 14%

Cc1cccc(C)c1Oc1ccc2c(C#N)nc(C(=O)NCC(=O)O)c(O)c2c1 [Compound C]
Percent Bone Marrow Neutrophils ([1]; 20 mg/kg once daily for 3 days): 47.1 % gated cells | Percent Bone Marrow Neutrophils Fold Increase Over Control ([1]; 20 mg/kg once daily for 3 days): 1.2 fold | Percent Bone Marrow Neutrophils ([1]; 60 mg/kg once daily for 3 days): 41.3 % gated cells | Percent Bone Marrow Neutrophils Fold Increase Over Control ([1]; 60 mg/kg once daily for 3 days): 1.0 fold | Percent Bone Marrow HPCs ([2]; 20 mg/kg once daily for 3 days): 4.9 % gated cells | Percent Bone Marrow HPCs Fold Increase Over Control ([2]; 20 mg/kg once daily for 3 days): 1.5 fold | Percent Bone Marrow HPCs ([2]; 20 mg/kg once daily for 4 days): 1.4 % gated cells | Percent Bone Marrow HPCs Fold Increase Over Control ([2]; 20 mg/kg once daily for 4 days): 1.2 fold | Percent Bone Marrow HPCs ([2]; 60 mg/kg once daily for 3 days): 6.1 % gated cells | Percent Bone Marrow HPCs Fold Increase Over Control ([2]; 60 mg/kg once daily for 3 days): 1.8 fold | Percent Bone Marrow HPCs ([2]; 60 mg/kg once daily for 4 days): 1.8 % gated cells | Percent Bone Marrow HPCs Fold Increase Over Control ([2]; 60 mg/kg once daily for 4 days): 1.5 fold | Lymphocytes (lymphocytes; 20 mg/kg once daily for 3 days): 10.63 10^3 cells/μl | Lymphocytes % Increase Over Control (lymphocytes; 20 mg/kg once daily for 3 days): 117% | Lymphocytes (lymphocytes; 20 mg/kg once daily for 4 days): 17.97 10^3 cells/μl | Lymphocytes % Increase Over Control (lymphocytes; 20 mg/kg once daily for 4 days): 192% | Lymphocytes (lymphocytes; 60 mg/kg once daily for 3 days): 12.70 10^3 cells/μl | Lymphocytes % Increase Over Control (lymphocytes; 60 mg/kg once daily for 3 days): 159% | Lymphocytes (lymphocytes; 60 mg/kg once daily for 4 days): 22.77 10^3 cells/μl | Lymphocytes % Increase Over Control (lymphocytes; 60 mg/kg once daily for 4 days): 270% | Blood Neutrophils (neutrophils [3]; 20 mg/kg once daily for 3 days): 1,375 cells/μl | Blood Neutrophils Fold Increase Over Control (neutrophils [3]; 20 mg/kg once daily for 3 days): 2.8 fold | Percent Blood Neutrophils (neutrophils [3]; 20 mg/kg once daily for 3 days): 11.6 % gated cells | Percent Blood Neutrophils Fold Increase Over Control (neutrophils [3]; 20 mg/kg once daily for 3 days): 1.2 fold | Blood Neutrophils (neutrophils [3]; 20 mg/kg once daily for 4 days): 1,067 cells/μl | Blood Neutrophils Fold Increase Over Control (neutrophils [3]; 20 mg/kg once daily for 4 days): 2.0 fold | Percent Blood Neutrophils (neutrophils [3]; 20 mg/kg once daily for 4 days): 15.8 % gated cells | Percent Blood Neutrophils Fold Increase Over Control (neutrophils [3]; 20 mg/kg once daily for 4 days): 1.5 fold | Blood Neutrophils (neutrophils [3]; 60 mg/kg once daily for 3 days): 2,487 cells/μl | Blood Neutrophils Fold Increase Over Control (neutrophils [3]; 60 mg/kg once daily for 3 days): 5.1 fold | Percent Blood Neutrophils (neutrophils [3]; 60 mg/kg once daily for 3 days): 17.6 % gated cells | Percent Blood Neutrophils Fold Increase Over Control (neutrophils [3]; 60 mg/kg once daily for 3 days): 1.8 fold | Blood Neutrophils (neutrophils [3]; 60 mg/kg once daily for 4 days): 2,933 cells/μl | Blood Neutrophils Fold Increase Over Control (neutrophils [3]; 60 mg/kg once daily for 4 days): 5.5 fold | Percent Blood Neutrophils (neutrophils [3]; 60 mg/kg once daily for 4 days): 12.2 % gated cells | Percent Blood Neutrophils Fold Increase Over Control (neutrophils [3]; 60 mg/kg once daily for 4 days): 1.2 fold | Neutrophils (neutrophils [4]; 20 mg/kg once daily for 3 days): 0.97 10^3 cells/μl | Neutrophils % Increase Over Control (neutrophils [4]; 20 mg/kg once daily for 3 days): 142% | Neutrophils (neutrophils [4]; 20 mg/kg once daily for 4 days): 0.77 10^3 cells/μl | Neutrophils % Increase Over Control (neutrophils [4]; 20 mg/kg once daily for 4 days): −4% | Neutrophils (neutrophils [4]; 60 mg/kg once daily for 3 days): 1.73 10^3 cells/μl | Neutrophils % Increase Over Control (neutrophils [4]; 60 mg/kg once daily for 3 days): 333% | Neutrophils (neutrophils [4]; 60 mg/kg once daily for 4 days): 1.37 10^3 cells/μl | Neutrophils % Increase Over Control (neutrophils [4]; 60 mg/kg once daily for 4 days): 71% | Blood HPCs ([5]; 20 mg/kg once daily for 3 days): 403 cells/μl | Blood HPCs Fold Increase Over Control ([5]; 20 mg/kg once daily for 3 days): 2.7 fold | Percent Blood HPCs ([5]; 20 mg/kg once daily for 3 days): 3.4 % gated cells | Percent Blood HPCs Fold Increase Over Control ([5]; 20 mg/kg once daily for 3 days): 1.6 fold | Blood HPCs ([5]; 20 mg/kg once daily for 4 days): 155 cells/μl | Blood HPCs Fold Increase Over Control ([5]; 20 mg/kg once daily for 4 days): 1.9 fold | Percent Blood HPCs ([5]; 20 mg/kg once daily for 4 days): 0.9 % gated cells | Percent Blood HPCs Fold Increase Over Control ([5]; 20 mg/kg once daily for 4 days): 0.7 fold | Blood HPCs ([5]; 60 mg/kg once daily for 3 days): 486 cells/μl | Blood HPCs Fold Increase Over Control ([5]; 60 mg/kg once daily for 3 days): 3.3 fold | Percent Blood HPCs ([5]; 60 mg/kg once daily for 3 days): 3.4 % gated cells | Percent Blood HPCs Fold Increase Over Control ([5]; 60 mg/kg once daily for 3 days): 1.5 fold | Blood HPCs ([5]; 60 mg/kg once daily for 4 days): 336 cells/μl | Blood HPCs Fold Increase Over Control ([5]; 60 mg/kg once daily for 4 days): 4.1 fold | Percent Blood HPCs ([5]; 60 mg/kg once daily for 4 days): 1.4 % gated cells | Percent Blood HPCs Fold Increase Over Control ([5]; 60 mg/kg once daily for 4 days): 1.2 fold | Total WBC ([6]; 20 mg/kg once daily for 3 days): 11.80 10^3 cells/μl | Total WBC % Increase Over Control ([6]; 20 mg/kg once daily for 3 days): 117% | Total WBC ([6]; 20 mg/kg once daily for 4 days): 18.83 10^3 cells/μl | Total WBC % Increase Over Control ([6]; 20 mg/kg once daily for 4 days): 167% | Total WBC ([6]; 60 mg/kg once daily for 3 days): 14.50 10^3 cells/μl | Total WBC % Increase Over Control ([6]; 60 mg/kg once daily for 3 days): 166% | Total WBC ([6]; 60 mg/kg once daily for 4 days): 24.33 10^3 cells/μl | Total WBC % Increase Over Control ([6]; 60 mg/kg once daily for 4 days): 245%
